Experimental data as given in US20040038861A1, “Methods and compositions for normalizing lipid levels in mammalian tissues” (priority 2001, published 2004).

Tests used:
[1] = molecular target: T1, ramp 1/C1ins− receptor (Mus musculus, UniProt Q60755+Q9WTJ5); assay: cAMP production in L6 myoblasts co-transfected with ramp 1 and C1ins−; format: cell-based, murine; details: 15 min, FIG. 10
T1 construct: expressed in transfected cells; host or cells: L6 myoblasts (ATCC), transient co-transfection of pcDNA3.1 plasmids
T1 sequence (Q60755 42-496 isoform Q60755-2 limits assumed): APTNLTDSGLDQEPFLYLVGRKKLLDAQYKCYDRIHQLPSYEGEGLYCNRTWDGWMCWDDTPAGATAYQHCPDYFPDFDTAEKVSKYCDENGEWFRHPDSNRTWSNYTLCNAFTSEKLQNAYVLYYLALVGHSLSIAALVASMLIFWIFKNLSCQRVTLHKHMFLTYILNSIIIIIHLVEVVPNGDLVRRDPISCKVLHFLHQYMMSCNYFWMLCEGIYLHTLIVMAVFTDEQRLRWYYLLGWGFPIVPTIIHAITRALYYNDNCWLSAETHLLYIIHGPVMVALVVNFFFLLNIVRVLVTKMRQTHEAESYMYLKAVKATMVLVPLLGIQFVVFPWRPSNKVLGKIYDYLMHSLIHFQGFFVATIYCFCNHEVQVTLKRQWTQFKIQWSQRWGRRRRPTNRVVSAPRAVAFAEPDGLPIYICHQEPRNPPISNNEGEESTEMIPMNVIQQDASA
T1 sequence (Q9WTJ5 27-148 partner): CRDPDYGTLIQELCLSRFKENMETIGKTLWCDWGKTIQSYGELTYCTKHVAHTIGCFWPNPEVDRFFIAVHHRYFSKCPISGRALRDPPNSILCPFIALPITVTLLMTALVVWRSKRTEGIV
Protocol: Transfection of L6 myoblasts and cos-7 cells, and analysis of radioligand binding. L6 myoblasts and cos-7 cells were obtained from ATCC. Both cell lines were cultered in Dulbecco's modified Eagle's medium (DMEM; Gibco/BRL, high glucose) supplemented with 10% fetal calf serum (Gibco/BRL, Gaithersburg, Md.), L-glutamine (2 mM), penicillin (100 U/ml; Sigma), streptomycin ([…]; Sigma), saline (0.85%), under 5% CO2/95% air at 37° C. The day before transfection, cells were trypsinised and seeded into six-well plates at a density of 2.9×10^5 cells/well in the same medium. For transfection, cells were incubated with a mixture comprising 1 μg each of Qiagen-purified (Qiagen, Valencia, Calif.) plasmids containing C1ins− with either ramp 1 or ramp 3, and Fugene reagent (6 μl; Boehringer Mannheim) in Opti-Mem I medium (Gibco/BRL). The complex was added with serum to cells, which were incubated for a further 48 h.
Determination of cAMP in cultured cells and soleus muscle strips. cAMP concentration was measured in cells seeded in six-well plates and transfected as described. Following aspiration, cells were incubated for 15 min at room temperature in the presence of stated concentrations of ligands in binding buffer. Isobutylmethylxanthine (Sigma) was added to a final concentration of 0.5 mM together with stated concentrations of peptides, and the reaction terminated by aspiration. Cells were washed with 0.5 ml ice-cold TE buffer (10 mM Tris/HCl, 1 mM EDTA, pH 7.6) and rapidly transferred to eppendorf tubes in 1 ml of the same buffer, then boiled for 5 min. Following centrifugation at 12,000 g for 5 min at 4° C., then cooling on ice, duplicate 50 μl aliquots were analyzed for cAMP using an assay system based on competitive binding (Arnersham Pharmacia) according to the manufacturer's instructions.

[2] = system: soleus muscle; assay: cAMP content of isolated soleus muscle from normal fed rats; format: cell-based, rat
Protocol: (§1) Soleus muscle preparation. All experiments were performed according to protocols approved by the Institutional Animal Ethics Committee. 5-6 week-old male Wistar rats (160 g) were kept on a 12:12-h light/dark cycle, and fed and watered ad libitum. Animals were anaesthetised with 50 mg/kg Nembutal (pentobarbitone sodium), then sacrificed by cervical dislocation. Soleus muscles were dissected under oxygenated KHB (118 mM NaCl, 4.75 mM KCl, 1.2 mM MgSO4, 24.8 mM NaHCO3, 1.2 mM KH2PO4, 2.54 mM CaCl2, 10 mM glucose, pH 7.4) and teased into halves, then incubated as described below.
For the measurement of cAMP in muscle, isolated soleus strips were incubated with stated concentrations of peptides, then lyophilized and deproteinized. Each strip was placed in 400 μl of 0.5 M HClO4 with 5 mM EDTA (phosphodiesterase inhibitor) and sonicated three times in 20 s bursts. Tubes were heated for 3-5 min in boiling water to coagulate protein, then centrifuged (12,000 g, 4° C., 2 min). Supernatant (300 μl) was taken and the pH adjusted to 7.0 with 75 μl of 2 M NH4OH. The samples were refrigerated (4° C., 2 h) to precipitate proteins, then centrifuged under the same conditions as above and 50 μl taken for cAMP measurement.

[3] = system: soleus muscle; assay: Incorporation of D[14C(U)]glucose into glycogen in isolated incubated soleus muscle; format: cell-based, rat; details: for rate of D[14C(U)]glucose incorporation into glycogen: 10 nM peptide, 2 h; for EC50: isolated rat soleus muscle
Protocol: as §1
Measurement of glycogen metabolism in isolated, incubated soleus muscle. […]. Glycogen was precipitated overnight at −20° C. with 96% ethanol (1.2 ml), followed by centrifugation at 8,000 g (15 min, 4° C.). Pellets were washed twice with the same amount of ethanol then dissolved in water (0.6 ml). Aliquots (0.3 ml) were analyzed for D[^14C(U)] glucose content by liquid scintillation spectrometry.
Data analysis. One way ANOVA, Dunnett's Multiple Comparisons Test, and unpaired Student's t-tests were used to calculate the statistical significance of differences, as appropriate. Dose-response curves were fitted to a sigmoidal dose-response algorithm, as follows: Y=minimum+(maximum−minimum)/([…] log ^(EC50^−X), for 2-DOG-uptake; and by a four parameter logistic model, Y=minimum+(maximum−minimum)/(1+10 log ^(EC50^−X)Hill-Coefficient) for total glycogen and [^14C]glucose incorporation. Calculations were performed using Prism v2.0 (GraphPad Software, San Diego, Calif.) to derive values for half-maximal effective concentration (EC50). Displacement curves derived for competition of bound radioligand with cold ligand in transfected cells were calculated according to a one site competition fit using Prism v2.0.

[4] = absence of insulin, control 4.8±0.3
[5] = maximal insulin, control 27.6±1.4

Row | Substance | cAMP production in co-transfected myoblasts [1] | maximal increase in cAMP content ([2]; 10 nM or 100 nM amylin, absence or presence of insulin) | effect of picomolar concentrations on muscle cAMP levels ([2]; FIG. 13C) | rate of D[14C(U)]glucose incorporation into glycogen [3, 4] [μmol/g dry-wt muscle/h] | rate of D[14C(U)]glucose incorporation into glycogen [3, 5] [μmol/g dry-wt muscle/h] | EC50 ([3]; absence of insulin) [nM] | EC50 ([3]; human insulin 23.7 nM) [nM] | muscle cAMP content ([2]; CGRP at both 5 nM and 100 nM, absence or presence of insulin (23.7 nM)) | cAMP content, agonist alone ([2]; normal fed, 100 nM CGRP or adrenaline, control 3.9±0.2) [pmol/mg] | cAMP increase with 1 pM CGRP ([2]; normal fed, 1 hr incubation)
1 | Rat amylin | dose-dependent increases of cAMP production | about 2 fold | no effect | 2.7±0.8 | 16.0±2.5 | 9.4 | 9.2 | – | – | –
2 | rat CGRP-1 | dose-dependent increases of cAMP production | – | – | 2.8±0.3 | 13.7±0.7 | 3.1 | 0.7 | significant increases in muscle cAMP content | 6.9 ± 0.8 | No significant cAMP increase
